Results reported in patent publication EP4273147A1, “SUBSTITUTED SPIROLACTAMS, SALTS THEREOF AND THEIR USE AS HERBICIDALLY ACTIVE SUBSTANCES” (Bayer Aktiengesellschaft, priority 2022, dated 2023).

How the values were obtained:
LOLRI = assay: Herbicidal pre-emergence action (Table A3); format: in vivo, Lolium rigidum; details: visual grading after ca. 3 weeks
Method in brief: (§1)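 Seeds covered with soil after sowing in sandy loam; every pot carried one monocotyledonous and one dicotyledonous weed species as a double sowing.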

DIGSA [1] = assay: Herbicidal pre-emergence action (Table A12); format: in vivo, Digitaria sanguinalis; details: application rate 320 g/ha; visual grading after ca. 3 weeks
Method in brief: as §1

ECHCG [2] = assay: Herbicidal pre-emergence action (Table A2); format: in vivo, Echinochloa crus-galli; details: application rate 320 g/ha; visual grading after ca. 3 weeks
Method in brief: as §1

MATIN = assay: Herbicidal pre-emergence action (Table A4); format: in vivo, Matricaria inodora; details: application rate 1280 g/ha; visual grading after ca. 3 weeks
Method in brief: as §1

SETVI [3] = assay: Herbicidal pre-emergence action (Table A5); format: in vivo, Setaria viridis; details: visual grading after ca. 3 weeks
Method in brief: as §1

STEME [4] = assay: Herbicidal pre-emergence action (Table A6); format: in vivo, Stellaria media; details: visual grading after ca. 3 weeks
Method in brief: as §1

KCHSC = assay: Herbicidal pre-emergence action (Table A10); format: in vivo, Kochia scoparia; details: application rate 1280 g/ha; visual grading after ca. 3 weeks
Method in brief: as §1

DIGSA [5] = assay: Herbicidal post-emergence action (Table B12); format: in vivo, Digitaria sanguinalis; details: application rate 1280 g/ha
Experimental: (§2) Seeds of mono- and dicotyledonous weed plants were placed in plastic pots in sandy loam soil (doubly sown with in each case one species of mono- or dicotyledonous weed plants per pot), covered with soil and cultivated in a greenhouse under controlled growth conditions. 2 to 3 weeks after sowing, the test plants were treated at the one-leaf stage. […] After the test plants had been kept in the greenhouse under optimum growth conditions for about 3 weeks, the activity of the preparations was rated visually in comparison to untreated controls. For example, 100% activity = the plants have died, 0% activity = like control plants.

POAAN [6] = assay: Herbicidal pre-emergence action (Table A7); format: in vivo, Poa annua; details: visual grading after ca. 3 weeks
Method in brief: as §1

AMARE [7] = assay: Herbicidal post-emergence action (Table B11); format: in vivo, Amaranthus retroflexus; details: application rate 1280 g/ha
Method in brief: (§3)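 Each pot held sandy loam sown with a single mono- or dicot weed species, grown under controlled greenhouse conditions. Test plants were sprayed at the one-leaf stage, and after about 3 weeks of further growth the percentage activity relative to untreated plants was rated visually.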

STEME [8] = assay: Herbicidal post-emergence action (Table B9); format: in vivo, Stellaria media; details: application rate 1280 g/ha
Experimental: as §2

SETVI [9] = assay: Herbicidal post-emergence action (Table B8); format: in vivo, Setaria viridis; details: application rate 1280 g/ha
Method in brief: as §3

ABUTH = assay: Herbicidal post-emergence action (Table B1); format: in vivo, Abutilon theophrasti; details: application rate 1280 g/ha; treated at one-leaf stage; rated visually after about 3 weeks vs untreated controls (100% = plants have died, 0% = like control plants)
Method in brief: as §3

ECHCG [10] = assay: Herbicidal post-emergence action (Table B3); format: in vivo, Echinochloa crus-galli; details: Echinochloa crus-galli, post-emergence, 504 h; application rate 1280 g/ha; rated visually after about 3 weeks; read-out: post-emergence activity against ECHCG
Method in brief: as §3

POAAN [11] = assay: Herbicidal post-emergence action (Table B7); format: in vivo, Poa annua; details: application rate 1280 g/ha
Method in brief: as §3

AMARE [12] = assay: Herbicidal pre-emergence action (Table A8); format: in vivo, Amaranthus retroflexus; details: application rate 1280 g/ha; visual grading after ca. 3 weeks vs untreated controls (100% = plants have died off, 0% = as control plants)
Method in brief: as §1

VERPE = assay: Herbicidal post-emergence action (Table B10); format: in vivo, Veronica persica; details: application rate 1280 g/ha
Method in brief: as §3

O=C1N(Cc2ccccc2)CCC12CCCN(Cc1c(F)cccc1F)C2=O (racemic) [I-089]
pre-emergence activity against LOLRI (LOLRI; application rate 320 g/ha): 100%
pre-emergence activity against DIGSA (DIGSA [1]): 90%
pre-emergence activity against ECHCG (ECHCG [2]): 100%
pre-emergence activity against MATIN (MATIN): 90%
pre-emergence activity against SETVI (SETVI [3]; application rate 320 g/ha): 100%
pre-emergence activity against STEME (STEME [4]; application rate 320 g/ha): 90%
pre-emergence activity against KCHSC (KCHSC): 90%
post-emergence activity against DIGSA (DIGSA [5]): 90%
pre-emergence activity against POAAN (POAAN [6]; application rate 320 g/ha): 100%

N#Cc1ccc(CN2CCCC3(CCCN(Cc4ccc(C#N)s4)C3=O)C2=O)s1 (single isomer, unassigned; (-)) [I-208, (-)-2,8-bis[(5-cyanothiophen-2-yl)methyl]-2,8-diazaspiro[5.5]undecane-1,7-dione]
pest or weed control at 1280 g/ha (LOLRI; Lolium rigidum, pre-emergence, 504 h, application rate 1280 g/ha, read-out: pre-emergence activity against LOLRI): 90%
post-emergence activity against AMARE (AMARE [7]): 90%
post-emergence activity against STEME (STEME [8]): 90%
pre-emergence activity against SETVI (SETVI [3]; application rate 1280 g/ha): 90%
post-emergence activity against SETVI (SETVI [9]): 90%
post-emergence activity against ABUTH (ABUTH): 90%
pre-emergence activity against STEME (STEME [4]; application rate 1280 g/ha): 100%
pre-emergence activity against KCHSC (KCHSC): 90%
pest or weed control at 1280 g/ha (ECHCG [10]): 90%
post-emergence activity against POAAN (POAAN [11]): 90%
pest or weed control at 1280 g/ha (POAAN [6]; Poa annua, pre-emergence, 504 h, application rate 1280 g/ha, read-out: pre-emergence activity against POAAN): 100%
pre-emergence activity against AMARE (AMARE [12]): 100%
post-emergence activity against VERPE (VERPE): 90%
